Read-outs that look alike come from different tables or passages of the source.
Experiments:
heparinized whole blood = conditions: for ability to preserve specimen glucose (in words): 10 mmol/L, 8 hours; for Decrease (glucose loss) / Glucose at 8 hours / Glucose at 0 Hours: agent at 10 mmol/L; for Decrease (glucose loss): 0 to 8 hours, no additions 41%; for Glucose at 8 hours: 8 hours at room temperature; for Glucose at 8 hours / Glucose at 0 Hours: mean(SD); for IC50: read-out: concentration that reduced glycolytic loss by half, 8 hours incubation at room temperature
Source text: Whole blood specimens collected in tubes containing sodium heparin as anticoagulant were obtained from healthy adult volunteers or from adult diabetic patients visiting an outpatient clinic, after obtaining informed consent. Specimens were employed for experimentation within one hour of collection. In a few experiments, whole blood heparinized specimens arriving at the clinical laboratory for analysis for glucose and other common analytes were mixed, and aliquots removed for experimental purposes. These studies were conducted in accordance with a protocol approved by the Human Studies Committee of Washington University.
Aliquots of heparinized whole blood (0.96 mL) were pipetted into microfuge tubes containing 0.040 mL of saline or anti-glycolytic agent in saline. Anti-glycolytic agents were prepared as 250 mmol/L stock solutions within one hour of use. At various times plasma was prepared from incubations by centrifugation at 8000×G for two minutes; plasma was decanted to 12×75 mm tubes and stored frozen until analysis. All incubations of whole blood were conducted at room temperature (23°) on a rotating table shaker, which kept the cells in dispersed suspension. d,1-glyceraldehyde, methylgloxal, d-glyceraldehyde, glycolaldehyde and dihydroxyacetone were obtained from Sigma Chem Co. (St. Louis, Mo.). 1-glyceraldehyde was obtained from Fisher Scientific (Pittsburgh, Pa.).
Glucose analyses were routinely performed on a Cobas-MIRA analyzer (Roche Diagnostic Systems, Montclair, N.J.), employing reagents based on glucose oxidase, manufactured by Sigma Diagnostics (St. Louis, Mo.). In some experiments, glucose and many other common laboratory analyses were performed on a Vitros 250 Analyzer (Ortho-Clinical Diagnostics, Rochester, N.Y.), a Hitachi 747 Analyzer (Boehringer-Mannheim Corp., Indianapolis, Ind.) and a RxL Analyzer (Dade Behring, Inc. Newark, Del.).
Whole heparinized blood was incubated for 0-8 hours in the presence of 10 mmol/L d,1-GA, and the glycolytic loss of glucose followed over time (FIG. 1).
Whole heparinized blood was incubated for 8 hours in the presence of 0-10 mmol/L d,1-GA (FIG. 2).
Several compounds related biochemically or structurally to d,1-GA were tested for ability to preserve specimen glucose; incubations without inhibitor and with d,1-GA were included for comparison (Table I). All compounds were tested at a final concentration of 10 mmol/L, and incubations were conducted at 0 hours and 8 hours for each compound. […] To test this possibility, an experiment varying the concentration of 1-GA was performed in analogy with the earlier experiment varying the d,1-GA concentration (see above).

[1] = test system: erythrocyte potassium homeostasis; assay: Effect on erythrocyte potassium homeostasis (plasma potassium in whole blood incubations); type: cell-based, human; conditions: 10 mmol/L d,1-GA; room temperature; 4.0±0 mmol/L at 0 hours
Protocol: 1-glyceraldehyde was obtained from Fisher Scientific (Pittsburgh, Pa.).
The time course of potassium concentration changes was followed for 8 hours in whole blood incubations under three conditions; 1) incubation at room temperature (without additions), 2) incubation at room temperature with 10 mmol/L d,1-GA, and 3) incubation at 4° C. (without additions). In room temperature incubations without additive, potassium decreased modestly from 4.0±0 mmol/L at 0 hours to 3.5±0.1 mmol/L at 8 hours. Incubation for 8 hours in the presence of d,1-GA caused an increase of similar magnitude (to 4.5±0 mmol/L). In contrast, incubation at 4° C., which has been advocated as an effective way to prevent glucose loss for short periods (Lin et al., Clin. Chem., 22:2031-3 (1976)), caused an increase to 6.0±0.1 mmol/L.

[2] = test system: patient whole blood specimens; assay: Efficacy of d,1-GA in patient specimens: initial glucose vs glucose after 8 hours incubation; type: cell-based, human; conditions: 10 mmol/L d,1-GA
Source text: Results are presented by plotting initial glucose concentration against glucose concentrations either in the presence or absence of d,1-GA (FIG. 3).

IC50 (heparinized whole blood) [µM]	plasma potassium at 8 hours [1] [mmol/L]	SMILES	hemolysis (heparinized whole blood)	elimination of glycolytic loss (in words) (heparinized whole blood; 2.5 mmol/L 1-GA, 8 hour incubation, data not shown)	ability to preserve specimen glucose (in words) (heparinized whole blood)	Decrease (glucose loss) (heparinized whole blood) [%]	Glucose at 8 hours (heparinized whole blood)	Glucose at 0 Hours (heparinized whole blood)	residual glucose at 8 hours (heparinized whole blood; 5 mmol/L d,1-GA, start 4.8±0.1 mmol/L, FIG. 2) [mmol/L]	loss of glucose at 8 hours (heparinized whole blood; 10 mmol/L d,1-GA, FIG. 1, without additive 38% lost) [%]	hemolysis (heparinized whole blood; whole blood incubation with additive)	reduction of the extent of glucose loss compared with absence of d,1-GA [2]
~650	–	O=C[C@@H](O)CO [1-GA, 1-glyceraldehyde]	does not cause hemolysis	nearly completely effective	completely prevented	0	4.8(0.1) mmol/L	4.8(0.1) mmol/L	–	–	–	–
–	–	O=C(O)C(O)CO (stereo not shown) [Glyceric Acid, reference compound]	–	–	–	42	2.7(0.2) mmol/L	4.7(0.1) mmol/L	–	–	–	–
–	–	O=CCO [Glycolaldehyde, reference compound]	–	–	–	52	2.3(0.1) mmol/L	4.8(0.1) mmol/L	–	–	–	–
–	–	O=C(CO)[C@@H](O)[C@H](O)[C@@H](O)CO [L-Sorbose, reference compound]	–	–	not effective	38	3.1(0) mmol/L	5.0(0.1) mmol/L	–	–	–	–
–	–	CC(=O)C=O [Methylglyoxal, reference compound]	–	–	ineffective	43	2.6(0.2) mmol/L	4.5(1.0) mmol/L	–	–	–	–
~900	4.5 ± 0	O=CC(O)CO (stereo not shown) [d,1-GA, d,1-glyceraldehyde]	–	–	–	0	4.8(0.1) mmol/L	4.7(0.2) mmol/L	4.6 ± 0.3	2	did not promote visible hemolysis	more than 7 fold
–	–	O=C[C@H](O)CO [d-GA, d-glyceraldehyde]	–	–	only partly effective	17	3.9(0.1) mmol/L	4.7(0.1) mmol/L	–	–	–	–
